Assay results from paper PMC11623267, “Inhibitors of malaria parasite cyclic nucleotide phosphodiesterases block asexual blood-stage development and mosquito transmission” (Science Advances, 2024).
Where two headings read alike, the source gives them in different places.

What was measured:
malaria parasites = system: malaria parasites; set-up: method as in PMID 25951195, PMID 33262483; conditions: cited from earlier work
[1] = system: cGMP-PDE activity in gametocyte lysates (PDEα, PDEδ); experiment: cGMP hydrolysis SPA in stage IV/V gametocyte membrane lysates; format: biochemical, Plasmodium falciparum; conditions: gametocyte lysate; geometric mean ×/÷ geometric SD
Procedure: cGMP signaling is known to play an essential role in gametogenesis in Plasmodium ([19], [20], [28]). We therefore tested the effects of all newly synthesized analogs for their ability to inhibit cGMP hydrolysis in crude gametocyte membrane preparations. […] S5A. These findings were also consistent with our enzyme-linked immunosorbent assay (ELISA)–based measurement of elevated cGMP levels in gametocytes following incubation with an example of each subseries (Fig. 2A). […] The levels of cAMP detected in gametocytes were similar in dimethyl sulfoxide (DMSO)–, XA-, and inhibitor-treated samples, and we could detect little or no cAMP hydrolysis in mature gametocytes (fig. S5B). […]
(§1) The cyclic nucleotide hydrolytic activity of membrane-associated parasite PDE enzymes was measured by a scintillation proximity assay (SPA) ([18]) using lysates of mature P. falciparum schizonts or stage IV/V gametocytes. […] The IC50 values for the compounds were determined using threefold serial dilutions in duplicate. […] The reactions were terminated by addition of 25 μl of PDE SPA beads (PerkinElmer, RPNQ0150), and after 20 min of incubation at room temperature, scintillation was measured using a Wallac 1450 Microbeta Counter (PerkinElmer) for 30 s. […]

P. falciparum Dd2-B2 = experiment: 72-hour flow cytometry EC50 assay, Dd2-B2 parental line; format: cell-based, Plasmodium falciparum; conditions: Plasmodium falciparum, DD2, read-out: EC50 Dd2-B2 parental line
Procedure: (§2) Stocks of SAL-0010003 (5-benzyl), SAL-0010355 (5-aryl), and SAL-0010419 (2-alkyl) were made at 10 and 1 mM in DMSO. Aliquots in use were stored at −20°C, and long-term storage was at −80°C. All in vitro studies were done such that the final DMSO concentration was <0.5%. P. falciparum ABS parasites were cultured at 3% hematocrit in human O+ RBCs in RPMI 1640 medium, supplemented with 25 mM Hepes, 50 mg L-hypoxanthine, 2 mM L-glutamine, 0.225% sodium bicarbonate, 0.5% (w/v) AlbuMAX II (Invitrogen) and gentamycin (10 μg/ml), in modular incubator chambers (Billups-Rothenberg) at 5% O2, 5% CO2, and 90% N2 at 37°C. Dd2-B2 (obtained from T. Wellems, National Institute of Allergy and Infectious Diseases, National Institutes of Health) is a genetically homogenous line that was cloned from Dd2 by limiting dilution. To define the EC50 and EC90 values of ABS parasites, Dd2-B2 ring-stage cultures at 0.2% parasitemia and 1% hematocrit were exposed for 72 hours to a range of 10 drug concentrations that were twofold serially diluted in duplicates along with drug-free controls. Parasite survival was assessed by flow cytometry on an iQue flow cytometer (Sartorius) using SYBR Green and MitoTracker Deep Red FM (Life Technologies) as nuclear stain and vital dyes, respectively. After determination of the EC50 and EC90 values for the three compounds with the P. falciparum Dd2-B2 clone, one single-step selection was set up using 2 × 10^5 parasites in each well of a 96-well plate at a starting concentration of 3× EC90. Parasites were cleared from the culture rapidly, and cultures were screened three times weekly by flow cytometry and counted as positive for recrudescence when the overall parasitemia reached 0.3% and the parasites were visible on a blood smear. DNA was extracted from recrudescent lines using a QIAGEN QIAamp Blood Mini Kit, and libraries were prepared with the Illumina DNA Prep kit for whole-genome sequencing on the Illumina MiSeq using a V3 2 × 300–base pair flow cell.

[2] = system: P. falciparum Dd2-B2 lines selected under drug pressure; experiment: 72-hour flow cytometry EC50 assay, lines selected under drug pressure; format: cell-based, Plasmodium falciparum; conditions: for EC50: Plasmodium falciparum
Procedure: Three examples of an additional compound series developed independently [NPD-2958, NPD-3518 ([31]), and NPD-3738; fig.
as §2

P. falciparum ABS = conditions: read-out: Median effective dose, P. falciparum ABS growth inhibition; cited from earlier work
P. falciparum 3D7 = P. falciparum 3D7 LDH growth inhibition assay (asexual blood stage); format: cell-based, Plasmodium falciparum
Procedure: P. falciparum isolates (3D7/Dd2) were obtained from BEI Resources and were cultured using standard procedures as described elsewhere ([47]). Briefly, P. falciparum was grown in RPMI 1640 medium (10.3 g/liter) supplemented with L-glutamine (2 mM), hypoxanthine (150 μM), Hepes (25 mM), D-glucose (12 mM), sodium bicarbonate (25.7 mM), AlbuMAX II (0.5% or 5 g/liter) (pH 7.4), and 2% RBC (type O+, freshly prepared). Cultures were replenished with fresh medium and RBCs every other day. For RBC preparation, whole blood was centrifuged at 415g at room temperature for 12 min. After that, the plasma and buffy coat were removed, and packed RBCs were washed three times with 3 vol of RPMI 1640. Last, RBCs were resuspended in 1:1 vol of complete RPMI 1640 medium (containing 0.5% AlbuMAX II).
The P. falciparum 3D7 and Dd2 LDH growth inhibition assay was carried out as described elsewhere ([48]) with minor modification of the parasitological conditions (10 to 15% parasitemia with ≥80% rings). Data were normalized to percent growth inhibition with respect to […] (for 3D7, a mixture of 100 nM chloroquine and 100 nM atovaquone as 100% inhibition; for Dd2, a mixture of 200 nM DHA and 200 nM atovaquone as 100% inhibition) controls.

PDEβ = target: T1, PDEβ (Plasmodium falciparum, UniProt Q8I6Z7); experiment: cAMP hydrolysis SPA in schizont membrane lysates; format: biochemical; conditions: read-out: IC50 against PDEβ
T1 construct: endogenous in cells; host or cells: P. falciparum 3D7 schizonts, NP-40 membrane lysate
T1 sequence (Q8I6Z7 whole entry): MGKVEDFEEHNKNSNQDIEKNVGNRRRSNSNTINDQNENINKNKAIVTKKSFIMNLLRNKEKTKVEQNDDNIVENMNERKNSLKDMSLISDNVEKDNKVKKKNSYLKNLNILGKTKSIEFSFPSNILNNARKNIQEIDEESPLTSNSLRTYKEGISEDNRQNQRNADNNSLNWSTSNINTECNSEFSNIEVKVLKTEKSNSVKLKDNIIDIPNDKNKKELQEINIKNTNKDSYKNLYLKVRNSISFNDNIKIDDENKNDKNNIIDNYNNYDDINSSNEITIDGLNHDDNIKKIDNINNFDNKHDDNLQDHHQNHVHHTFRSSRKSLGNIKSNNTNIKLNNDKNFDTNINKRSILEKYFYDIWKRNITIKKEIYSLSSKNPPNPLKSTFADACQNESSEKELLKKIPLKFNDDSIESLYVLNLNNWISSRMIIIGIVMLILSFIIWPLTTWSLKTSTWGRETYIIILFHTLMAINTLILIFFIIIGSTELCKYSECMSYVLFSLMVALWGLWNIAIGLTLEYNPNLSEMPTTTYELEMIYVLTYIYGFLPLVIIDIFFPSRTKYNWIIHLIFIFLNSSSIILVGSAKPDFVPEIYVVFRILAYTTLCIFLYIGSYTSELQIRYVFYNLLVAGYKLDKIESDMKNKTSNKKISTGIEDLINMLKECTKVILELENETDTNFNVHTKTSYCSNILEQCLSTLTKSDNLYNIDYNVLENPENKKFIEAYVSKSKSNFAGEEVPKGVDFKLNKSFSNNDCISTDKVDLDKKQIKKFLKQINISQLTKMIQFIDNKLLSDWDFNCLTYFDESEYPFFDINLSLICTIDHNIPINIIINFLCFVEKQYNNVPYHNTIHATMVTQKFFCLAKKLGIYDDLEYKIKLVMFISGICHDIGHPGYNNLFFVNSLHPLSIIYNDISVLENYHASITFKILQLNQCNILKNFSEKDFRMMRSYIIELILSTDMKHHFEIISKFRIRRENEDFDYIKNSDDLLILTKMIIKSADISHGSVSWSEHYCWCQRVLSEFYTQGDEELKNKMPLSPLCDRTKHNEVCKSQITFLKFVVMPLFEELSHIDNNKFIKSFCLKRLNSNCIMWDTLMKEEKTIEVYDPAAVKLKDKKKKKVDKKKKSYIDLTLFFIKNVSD
Source text: We identified three PDE inhibitor chemical series generated by Pfizer, with structures in the public domain, which have activity against malaria parasites (see the “Chemistry strategy summary” section). These series were originally designed to inhibit human PDEs and were chosen as chemistry start points to optimize activity against malaria parasites. More than 400 new analogs were generated (full details of their properties will be reported in a separate paper, in preparation) through iterative rounds of synthesis and testing. The chemistry start points for each of the series were SAL-0010042 (5-benzyl), SAL-0010043 (5-aryl), and SAL-0010034 (2-alkyl) (see Materials and Methods and fig. S1A). S2. Analytical data for these compounds are provided in data S1. All newly synthesized compounds were tested for inhibition of native cAMP-PDE activity in mature schizont crude membrane preparations and inhibition of P. falciparum ABS growth. S3A. […] The unbound EC50 values for the compounds in the parasite growth inhibition assay were consistently calculated to be sevenfold higher than the IC50 values in the biochemical assay. Given that PDEβ is dual specific (i.e., can hydrolyze both cAMP and cGMP), we also determined IC50 values for cGMP hydrolysis. […] The IC50 values measured for cGMP hydrolysis in blood-stage schizonts were generally similar to those for cAMP hydrolysis (Table 1). […]
as §1

Compound: CN1CC(=O)N2[C@H](c3ccc4c(c3)OCO4)c3[nH]c4ccccc4c3C[C@@H]2C1=O [tadalafil]
- IC50 against malaria parasites (malaria parasites): mid-to-high micromolar range

Compound: CCc1c2nc(-c3cc(-c4cccnc4)cnc3OCC(C)C)[nH]c(=O)c2nn1CCOC [SAL-0010419]
- IC50 [1]: > 10000 nM
- EC50 (P. falciparum Dd2-B2): 61.4 nM
- EC50 ([2]; DD2, read-out: EC50, line selected with SAL-0010419, Well C4): 360 nM
- EC50 ([2]; DD2, read-out: EC50, line selected with SAL-0010419, Well E11): 344 nM
- EC50 ([2]; DD2, read-out: EC50, line selected with SAL-0010419, Well F8): 293 nM
- Mean fold change in EC50 ([2]; selected lines vs Dd2-B2 parental line, ±SD): 5.4 ± 0.6 fold
- EC50 shift, line selected with SAL-0010419, Well C4 ([2]; vs Dd2-B2): 5.9 fold
- EC50 shift, line selected with SAL-0010419, Well E11 ([2]; vs Dd2-B2): 5.6 fold
- EC50 shift, line selected with SAL-0010419, Well F8 ([2]; vs Dd2-B2): 4.8 fold

Compound: CCCOc1ccccc1-c1nc2nn[nH]c2c(=O)[nH]1 [zaprinast]
- EC50 (P. falciparum ABS): 35000 nM

Compound: CCCc1n[nH]c2c(=O)[nH]c(-c3cc(S(=O)(=O)N4CCN(C)CC4)ccc3OCC)nc12 [des-Me sildenafil, desmethyl (des-Me) sildenafil]
- EC50 (P. falciparum 3D7; Plasmodium falciparum, 3D7, read-out: EC50 against ABS parasites): 415 nM
- Difference in ABS EC50 vs sildenafil (P. falciparum 3D7; des-Me sildenafil vs sildenafil): > 60 fold
- IC50 (PDEβ): 36.7 nM
